Results taken from patent US20240207454A1, “NEURO-BEHAVIORAL ASSAY FOR PHYSIOLOGICAL EVALUATION OF WATER-SOLUBLE ANESTHETICS” (Northeastern University, priority 2022, published 2024).
Several values for one entry are separate records, joined by “and”; a condition that tells them apart may be missing. Identical values can stand only once.

Columns and labels:
[1] = test system: Apteronotus leptorhynchus; assay: Neuro-behavioral assay: chirps (EOD modulations); assay type: in vivo; conditions: for Number of chirps during the 30 min immediately following anesthesia (mean) / Number of chirps during the 30 min immediately following anesthesia (median) / Number of chirps during the 30 min immediately following anesthesia (range among fish): 2.5% urethane or 0.02% MS-222, n=8 fish
Excerpt: Previous research has shown that transient modulations of the EOD may occur, both spontaneously and through stimulation with electric signal mimicking the EOD of a conspecific. These modulations are brief (several tens of milliseconds) and involve frequency increases. They are commonly referred to as ‘chirps.’
To identify chirp instances, the time-frequency data {(Tk, fk)}k=q^q+n^wind, q=1, . . . , M−nwind−1, was considered in a moving time window containing nwind+1 samples. The first and last nmed samples in each window are used to establish the instantaneous base frequency before chirping:
to the data set {(ξp,q, ϕp,q)}p=0^n^wind for each q=1, 2, . . . time window. This curve fitting was carried out over a fixed search range α∈[αmin, αmax] discretized evenly using nα+1 number points. For each q=1, 2, . . . time window, the coefficient of determination Rq,i^2 was computed for each point αi=αmin+i (αmax−αmin)/nα, i=0, . . . , nα of the discretized search range. Then, the fitted curve for each q=1, 2, . . . time window as Φ (ξ; ? ), with
Subsequently, using Algorithm 1, contiguous segments of successive windows are identified within qε and for each segment the time window q associated with the maximum ? value is reported together with the corresponding parameter ? and maximum frequency rise Δfq.
Nonlinear regression is performed on data points within these time windows using the three-parameter model Ψ(ξ; α, Δf, τ)=Δf Φ(ξ−τ; α) with initial parameters α= ? , Δf=Δfq, and τ=0. Finally,
as time instance, ? as maximum frequency rise and dchirp,q=ln(7+4√{square root over (3)})/αq is reported as duration of a chirp for each q reported time window with parameter estimates αq, ? , τq. Here the formula for chirp duration corresponds to the half prominence of Ψ(ξ; αq, ? , τq).
(§1) The experimental design is outlined in FIG. 2. To determine the baseline EOD frequency, the fish's EOD was recorded for 30 min. Then, the fish was transferred into a glass beaker containing either 2.5% urethane (Acros Organics, New Jersey, USA) or 0.02% MS-222 (Western Chemical, Washington, USA), each dissolved in water from the fish's isolation tank. As a control, the fish was moved into an identical glass beaker containing aquarium water only. The temperatures of the anesthetic solutions or the aquarium water in the beaker were similar (±1° C.) to the temperature of the water in the fish's isolation tank.
(§2) The fish was left in the anesthetic solution until both anal fin undulation and opercular movement ceased. It was then returned to its isolation tank where recording of the EOD continued for 180 min. For urethane anesthesia, treatment including transfer to and from the beaker took between 4-5 min. MS-222 anesthesia required longer exposure to the anesthetic so that the entire treatment lasted between 9-15 min. Control experiments were designed such that the handling of the fish and the time the fish spent outside its isolation tank were similar to the corresponding anesthesia experiments (urethane control: 5-8 min; MS-222 control: 7-10 min).
The method described in Eske et al. (2023) was employed for the detection of chirps. This method assumes that the frequency shape of chirps normalized by the peak frequency rise is described in time by function
where ξ is the time coordinate measured from the chirp's peak frequency and α is an unknown parameter identified by the chirp detection method (FIG. 2). This function closely matches the shape of type-2 chirps, and, though to a lesser extent, the shape of type-1 chirps. […]

[2] = test system: Apteronotus leptorhynchus; assay: Neuro-behavioral assay: locomotor activity and induction of anesthesia; assay type: in vivo; conditions: for Treatment time until anal fin undulation and opercular movement ceased, including transfer to and from the beaker: 2.5% urethane or 0.02% MS-222 immersion
Experimental: FIG. 30 Locomotor activity inferred from amplitude fluctuations of the EOD. After recording of the baseline EOD for 6 min, the fish was transferred to a 0.02% MS-222 solution in aquarium water for 5 min. After return of the fish to its home tank, the EOD recording continued for 15 min. To determine the locomotor activity index, positive and negative deviations from an arbitrarily set threshold value of the amplitude were determined every 1 sec, and the standard deviation of the absolute values of these amplitude deviations were calculated for 30-sec time windows. […] Recovery of the locomotor activity occurred within some 2 min after the fish was returned to its home tank (filled circles).
as §1, §2
To examine the effect of eugenol on EOD frequency and chirping behavior, the following experiments were conducted using 8 fish (FIG. 11): First, the baseline EOD was recorded in the fish's home tank (50 cm×30 cm×30 cm) for 30 min. Then, for the 5-min treatment session, the shelter tube with the fish was transferred to a smaller (experimental) tank (30 cm×20 cm×20 cm) containing either eugenol dissolved in aquarium water at a certain concentration (30 μL/L, 45 μL/L, or 60 μL/L; ‘test condition’) or aquarium water only (‘control condition’). The temperature in the experimental tank was similar to the temperature in the home tank (median difference: ±0.2° C.). Finally, the shelter tube with the fish was returned to the home tank, where recording continued for 180 min. Throughout the 215 min of pre-treatment, treatment, and post-treatment, the recording of the EOD was interrupted only for a few seconds during which the fish was transferred between its home tank and the experimental tank. The order of the four treatment conditions was determined using a randomized complete block design. Each test or control experiment in a given fish was conducted on a different day.
Most of the time, fish in the shelter tube maintained an upright position, with their longitudinal axis parallel to the walls of the tube. Forward and backward swimming occurred frequently and appeared to be mediated primarily by high-frequency undulations of the anal fin. Sporadically, the fish made 180° turns around its vertical axis.
Neuro-Behavioral Assay extended to the monitoring of locomotor activity. The electric organ discharge (EOD) that is recorded as the assayed behavior contains not only information about the frequency and possible modulations of the EOD (‘chirps’) but also about the locomotor activity of the fish. […]

[3] = 0.02% MS-222, 5 min exposure (FIG. 30)

CCOC(=O)c1cccc(N)c1 [MS-222, 3-aminobenzoic acid ethyl ester methanesulfonate]
Time chirp rates remained elevated after anesthesia ([1]; 0.02% MS-222): ≤ 3 h
Number of chirps during the 30 min immediately following anesthesia (mean) [1]: 48 chirps
Number of chirps during the 30 min immediately following anesthesia (median) [1]: 30 chirps
Number of chirps during the 30 min immediately following anesthesia (range among fish) [1]: 1-156 chirps
Time from start of exposure until locomotor activity drops dramatically [2, 3]: ≤ 2 min
Time to recovery of locomotor activity after return to home tank [2, 3]: ≤ 2 min
Treatment time until anal fin undulation and opercular movement ceased, including transfer to and from the beaker [2]: 9 to 15 min

C=CCc1ccc(O)c(OC)c1 [eugenol]
Difference in increase in the number of chirps (30 min before vs 30 min after exposure): Median ([1]; eugenol 30 μL/L vs. Control): 97.5
Difference in increase in the number of chirps between pairs of eugenol concentrations: Median ([1]; eugenol 45 μL/L vs. 30 μL/L): 8
Difference in increase in the number of chirps (30 min before vs 30 min after exposure): Median ([1]; eugenol 45 μL/L vs. Control): 137
Difference in increase in the number of chirps between pairs of eugenol concentrations: Median ([1]; eugenol 60 μL/L vs. 30 μL/L): 60.5
Difference in increase in the number of chirps between pairs of eugenol concentrations: Median ([1]; eugenol 60 μL/L vs. 45 μL/L): 23
Difference in increase in the number of chirps (30 min before vs 30 min after exposure): Median ([1]; eugenol 60 μL/L vs. Control): 160
Fish in which anal fin continued undulating throughout the 5-min exposure ([2]; 30 μL/L eugenol): 3 out of 8
Time after which body movements ceased (mean) ([2]; 30 μL/L eugenol, 8 fish): 1.8 min
Time after which body movements ceased (range) ([2]; 30 μL/L eugenol, 8 fish): 1 to 3 min
Time after which anal fin undulation stopped ([2]; 30 μL/L eugenol, the 5 fish in which it stopped): 1 to 3 min
Time to anesthesia (total loss of equilibrium and cessation of any movement, including anal fin undulation) ([2]; 45 μL/L and 60 μl/L eugenol): 1 to 4 min
Fish in which anal fin continued undulating throughout the 5-min exposure ([2]; 45 μL/L eugenol): 1 out of 8
Time after which body movements ceased (mean) ([2]; 45 μL/L eugenol, 8 fish): 1.4 min
Time after which body movements ceased (range) ([2]; 45 μL/L eugenol, 8 fish): 1 to 2 min
Time after which anal fin ceased undulating ([2]; 45 μL/L eugenol, the 7 fish in which it ceased): 1 to 3 min
Time after which body movements ceased (each fish) ([2]; 60 μL/L eugenol, 8 fish): 1 min

CCOC(N)=O [urethane]
Number of chirps during the 30 min immediately following anesthesia (mean) [1]: 1852 chirps and 1500 chirps
Number of chirps during the 30 min immediately following anesthesia (median) [1]: 1541 chirps
Number of chirps during the 30 min immediately following anesthesia (range among fish) [1]: 568-4434 chirps
Time T to which type-2 chirping at higher rates persists after exposure ([1]; 2.5% urethane, single recording (FIG. 20)): ~4600 s
Treatment time until anal fin undulation and opercular movement ceased, including transfer to and from the beaker [2]: 4 to 5 min
